The term IC50 denotes the concentration that gives 50% inhibition.

Bounds are passed on as bounds.

This test is described as follows: Inhibition of telomerase by fluorescence based assay. Also on record: species or system Homo sapiens.
In turn, `CC[n+]1c(-c2ccccc2)c2cc(NC(=O)CCCC(N)=O)ccc2c2ccc(N)cc21` returned an IC50 of 68.2 µM. That is a double-digit micromolar value.
Then `CC[n+]1c(-c2ccccc2)c2cc(N)ccc2c2ccc(NC(=O)CCCC(N)=O)cc21`, with 5.6 µM; and `CC[n+]1c(-c2ccccc2)c2cc(NC(=O)CCCC(N)=O)ccc2c2ccc(NC(=O)CCCC(N)=O)cc21`, with above 80 µM; and `CC[n+]1c(-c2ccccc2)c2cc(NC(=O)CCCC(=O)O)ccc2c2ccc(NC(=O)CCCC(=O)O)cc21`, with 63.1 µM.
In turn, `Nc1ccc2c(c1)c(-c1ccccc1)[n+](Cc1ccc(C(=O)O)cc1)c1cc(N)ccc21` came in with an IC50 of 27.3 µM. This IC50 is about 2.3-fold lower than that of the compound before.
As for `Nc1ccc2c(c1)c(-c1ccccc1)[n+](CCCCCC(=O)O)c1cc(N)ccc21`, half-maximal inhibition (IC50) required 23.3 µM.
In turn, `CC[n+]1c(-c2ccccc2)c2cc(N)ccc2c2ccc(NC(=O)CCCC(=O)O)cc21` displayed an IC50 above 80 µM.
On to `NC(=O)c1ccc(C[n+]2c(-c3ccccc3)c3cc(N)ccc3c3ccc(N)cc32)cc1`, for which the IC50 stood at 2.9 µM.
To `NC(=O)CCCCC[n+]1c(-c2ccccc2)c2cc(N)ccc2c2ccc(N)cc21` belongs 30.3 µM.
Then `CC[n+]1c(-c2ccccc2)c2cc(NC(=O)CCCC(=O)O)ccc2c2ccc(N)cc21`, with above 80 µM.
